Measurements from PubChem BioAssay AID1919014 (Molecular Pharmacology Branch, DTP, NCI, 2023).

System: NCI-H1341 complex spheroids, percent test/control
Assay: Anticancer human tumor NCI-H1341 cell line growth inhibition [AhR];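 also: spheroids exposed to agents for seven days before readout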
Conditions: for IC50: curve of first compound; for viability, T/C: stronger effect = lower value
In short: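 Complex tumor spheroids co-cultured with HUVEC and human MSC stroma; AhR antagonists tested in combination with standard-of-care and investigational agents. Top concentration at or near clinical Cmax (else 10 microM), half-log dilutions; growth expressed as percent test/control.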

[1] = second compound 0.1 µM, first compound 0.0316 µM
[2] = second compound 0.1 µM, first compound 0.1 µM
[3] = second compound 0.1 µM, first compound 0.316 µM
[4] = second compound 0.1 µM, first compound 1 µM
[5] = second compound 0.1 µM, first compound 3.16 µM
[6] = second compound 0.1 µM, first compound 10 µM
[7] = second compound 0.316 µM, first compound 0.0316 µM
[8] = second compound 0.316 µM, first compound 0.1 µM
[9] = second compound 0.316 µM, first compound 0.316 µM
[10] = second compound 0.316 µM, first compound 1 µM
[11] = second compound 0.316 µM, first compound 3.16 µM
[12] = second compound 0.316 µM, first compound 10 µM
[13] = second compound 1 µM, first compound 0.0316 µM
[14] = second compound 1 µM, first compound 0.1 µM
[15] = second compound 1 µM, first compound 0.316 µM
[16] = second compound 1 µM, first compound 1 µM
[17] = second compound 1 µM, first compound 3.16 µM
[18] = second compound 1 µM, first compound 10 µM
[19] = second compound 3.16 µM, first compound 0.0316 µM
[20] = second compound 3.16 µM, first compound 0.1 µM
[21] = second compound 3.16 µM, first compound 0.316 µM
[22] = second compound 3.16 µM, first compound 1 µM
[23] = second compound 3.16 µM, first compound 3.16 µM
[24] = second compound 3.16 µM, first compound 10 µM
[25] = second compound 10 µM, first compound 0.0316 µM
[26] = second compound 10 µM, first compound 0.1 µM
[27] = second compound 10 µM, first compound 0.316 µM
[28] = second compound 10 µM, first compound 1 µM
[29] = second compound 10 µM, first compound 3.16 µM
[30] = second compound 10 µM, first compound 10 µM

Question: With Nc1ccn(C2OC(CO)C(O)C2(F)F)c(=O)n1 (stereo not given) + Cc1cncc(-c2nc(NCCc3c[nH]c4ccccc34)c3ncn(C(C)C)c3n2)c1 as the compound, how does the IC50 (second compound 0.1 µM) read?
Answer: < 31.6 nM

Question: And the IC50 (second compound 0.316 µM)?
Answer: < 31.6 nM

Question: And the IC50 (second compound 1 µM)?
Answer: < 31.6 nM

Question: What about the IC50 (second compound 3.16 µM) of the same compound?
Answer: < 31.6 nM

Question: And the IC50 (second compound 10 µM)?
Answer: < 31.6 nM

Question: What about the viability, T/C [1] of the same compound?
Answer: 28.4%

Question: And the viability, T/C [2]?
Answer: 28.2%

Question: And the viability, T/C [3]?
Answer: 25.5%

Question: What about the viability, T/C [4] of the same compound?
Answer: 25.2%

Question: What about the viability, T/C [5] of the same compound?
Answer: 27.6%

Question: And the viability, T/C [6]?
Answer: 20.8%

Question: What about the viability, T/C [7] of the same compound?
Answer: 30.6%

Question: What about the viability, T/C [8] of the same compound?
Answer: 28.5%

Question: And the viability, T/C [9]?
Answer: 25.9%

Question: And the viability, T/C [10]?
Answer: 25.6%

Question: And the viability, T/C [11]?
Answer: 22.7%

Question: And the viability, T/C [12]?
Answer: 21.5%

Question: And the viability, T/C [13]?
Answer: 29.2%

Question: What about the viability, T/C [14] of the same compound?
Answer: 31.7%

Question: What about the viability, T/C [15] of the same compound?
Answer: 27.9%

Question: And the viability, T/C [16]?
Answer: 26.4%

Question: What about the viability, T/C [17] of the same compound?
Answer: 24.3%

Question: What about the viability, T/C [18] of the same compound?
Answer: 20.9%

Question: And the viability, T/C [19]?
Answer: 32.8%

Question: What about the viability, T/C [20] of the same compound?
Answer: 27.1%

Question: And the viability, T/C [21]?
Answer: 28.5%

Question: What about the viability, T/C [22] of the same compound?
Answer: 27%

Question: And the viability, T/C [23]?
Answer: 26.8%

Question: What about the viability, T/C [24] of the same compound?
Answer: 21.6%

Question: And the viability, T/C [25]?
Answer: 36.6%

Question: What about the viability, T/C [26] of the same compound?
Answer: 23.7%

Question: And the viability, T/C [27]?
Answer: 28.9%

Question: And the viability, T/C [28]?
Answer: 27.3%

Question: And the viability, T/C [29]?
Answer: 30.8%

Question: What about the viability, T/C [30] of the same compound?
Answer: 23.1%

Question: Which IC50 (second compound 0.1 µM) does the source give for O=C(c1cc(Cc2n[nH]c(=O)c3ccccc23)ccc1F)N1CCN(C(=O)C2CC2)CC1 + Cc1cncc(-c2nc(NCCc3c[nH]c4ccccc34)c3ncn(C(C)C)c3n2)c1 here?
Answer: > 10000 nM

Question: What about the IC50 (second compound 0.316 µM) of the same compound?
Answer: > 10000 nM

Question: What about the IC50 (second compound 1 µM) of the same compound?
Answer: > 10000 nM

Question: And the IC50 (second compound 3.16 µM)?
Answer: > 10000 nM

Question: And the IC50 (second compound 10 µM)?
Answer: < 31.6 nM

Question: And the viability, T/C [1]?
Answer: 87.6%

Question: And the viability, T/C [2]?
Answer: 80.9%

Question: And the viability, T/C [3]?
Answer: 82.1%

Question: And the viability, T/C [4]?
Answer: 85.5%

Question: And the viability, T/C [5]?
Answer: 76.7%

Question: And the viability, T/C [6]?
Answer: 61.7%

Question: And the viability, T/C [7]?
Answer: 72.7%

Question: And the viability, T/C [8]?
Answer: 91.4%

Question: And the viability, T/C [9]?
Answer: 64.4%

Question: What about the viability, T/C [10] of the same compound?
Answer: 77.5%

Question: What about the viability, T/C [11] of the same compound?
Answer: 74.1%

Question: And the viability, T/C [12]?
Answer: 63%

Question: And the viability, T/C [13]?
Answer: 88.3%

Question: What about the viability, T/C [14] of the same compound?
Answer: 61.2%

Question: What about the viability, T/C [15] of the same compound?
Answer: 70.8%

Question: And the viability, T/C [16]?
Answer: 79.3%

Question: And the viability, T/C [17]?
Answer: 71%

Question: What about the viability, T/C [18] of the same compound?
Answer: 62.7%

Question: What about the viability, T/C [19] of the same compound?
Answer: 57.5%

Question: What about the viability, T/C [20] of the same compound?
Answer: 61.1%

Question: What about the viability, T/C [21] of the same compound?
Answer: 60.6%

Question: What about the viability, T/C [22] of the same compound?
Answer: 62%

Question: And the viability, T/C [23]?
Answer: 68.1%

Question: What about the viability, T/C [24] of the same compound?
Answer: 51.4%

Question: What about the viability, T/C [25] of the same compound?
Answer: 19.4%

Question: And the viability, T/C [26]?
Answer: 19.5%

Question: And the viability, T/C [27]?
Answer: 19.6%

Question: And the viability, T/C [28]?
Answer: 21.3%

Question: And the viability, T/C [29]?
Answer: 21.2%

Question: And the viability, T/C [30]?
Answer: 22.1%
